Test results as given in the OPERA property sets (Mansouri et al. 2018).
In brackets after ≈: the same amount, converted by molar mass.

Row | SMILES | solubility (25 °C) [mM] | other results
1 | CCCN(CCC)CCC | 5.22 (≈ 748 µg/mL) | –
2 | Cc1ccccc1O | 239 (≈ 25900 µg/mL) | –
3 | COc1ccc(Oc2ccc(NC(=O)N(C)C)cc2)cc1 | – | solubility (20 °C): 0.0699 mM (≈ 20 µg/mL)
4 | CCNP(=S)(OC)O/C(C)=C/C(=O)OC(C)C (centres undefined) | – | solubility (24 °C): 0.391 mM (≈ 110 µg/mL)
5 | CCCCCC(=O)OC | – | solubility (20 °C): 10.2 mM (≈ 1330 µg/mL)
6 | CCOc1ccc(C(=O)OCCN(CC)CC)cc1 | – | solubility: 1.93 mM (≈ 512 µg/mL)
7 | CCOC(=O)C1(c2ccccc2)CCN(C)CC1 | – | solubility (30 °C): 13 mM (≈ 3220 µg/mL)
8 | CCOP(=S)(OCC)OCCSCC | – | solubility: 0.232 mM (≈ 60 µg/mL)
9 | CCCC(C)O (centres undefined) | 506 (≈ 44600 µg/mL) | –
10 | CCCCc1c(C)nc(N(C)C)nc1O | 5.73 (≈ 1200 µg/mL) | –
11 | CC(C)C1=CC2=CC[C@@H]3[C@](C)(CCC[C@@]3(C)C(=O)O)[C@H]2CC1 | – | solubility (20 °C): 0.16 mM (≈ 48.4 µg/mL)
12 | CCSc1nc(NC(C)C)nc(NC(C)C)n1 | – | solubility (20 °C): 0.0626 mM (≈ 16 µg/mL)
13 | CC(=O)[C@@]1(O)CC[C@H]2[C@@H]3CCC4=CC(=O)CC[C@]4(C)[C@H]3CC[C@@]21C | – | solubility (27 °C): 0.0196 mM (≈ 6.48 µg/mL)
14 | CN(C)[C@@H]1C(O)=C(C(N)=O)C(=O)[C@@]2(O)C(O)=C3C(=O)c4c(O)cccc4[C@@](C)(O)[C@H]3[C@H](O)[C@@H]12 | 0.68 (≈ 313 µg/mL) | –
15 | OCCN(CCO)c1ccccc1 | – | solubility (20 °C): 184 mM (≈ 33400 µg/mL)
16 | O=C(O)C1(O)c2ccccc2-c2ccc(Cl)cc21 (centres undefined) | – | solubility (20 °C): 0.076 mM (≈ 19.8 µg/mL)
17 | COc1ccc2c(c1OC)C(=O)O[C@@H]2[C@H]1c2c(cc3c(c2OC)OCO3)CCN1C | 0.449 (≈ 186 µg/mL) | –
18 | Clc1ccccc1-c1cc(Cl)c(Cl)c(Cl)c1Cl | – | solubility (23 °C): 5.17e-05 mM (≈ 0.0169 µg/mL)
19 | COc1ccccc1 | 9.62 (≈ 1040 µg/mL) | –
20 | NC(=S)c1c(Cl)cccc1Cl | – | solubility (21 °C): 4.61 mM (≈ 950 µg/mL)
21 | O=P(OC(CCl)CCl)(OC(CCl)CCl)OC(CCl)CCl | – | solubility (24 °C): 0.0162 mM (≈ 7 µg/mL)
22 | CC1CCCC(=O)C1 (centres undefined) | – | solubility (20 °C): 13.4 mM (≈ 1500 µg/mL)
23 | CNc1ccccc1 | 52.4 (≈ 5620 µg/mL) | –
24 | Clc1ccc(Cl)c(-c2cc(Cl)c(Cl)c(Cl)c2Cl)c1 | – | solubility (20 °C): 2.09e-05 mM (≈ 0.00755 µg/mL)
25 | C1OCOCO1 | 1940 (≈ 175000 µg/mL) | –
26 | c1cc2cccc3c4cccc5cccc(c(c1)c23)c54 | 1.59e-06 (≈ 0.0004 µg/mL) | –
27 | OC(c1ccccc1)c1ccccc1 | 2.82 (≈ 520 µg/mL) | –

Row | SMILES | solubility (25 °C) [mM] | other results
28 | NS(=O)(=O)c1cc2c(cc1C(F)(F)F)NC(Cc1ccccc1)NS2(=O)=O (centres undefined) | 0.256 (≈ 108 µg/mL) | –
29 | O=C(O)c1cc(=O)cc(C(=O)O)o1 | 77.7 (≈ 14300 µg/mL) | –
30 | O=C(O)CCCCCCCCCCCCC(=O)O | – | solubility (21 °C): 0.774 mM (≈ 200 µg/mL)
31 | c1cnc2ncncc2n1 | – | solubility (20 °C): 1080 mM (≈ 143000 µg/mL)
32 | CCCOP(=O)(OCCC)Oc1ccc(SC)cc1 | 0.411 (≈ 125 µg/mL) | –
33 | Nc1cc[nH]c(=O)n1 | 72 (≈ 8000 µg/mL) | –
34 | C(=C\c1ccccc1)/c1ccccc1 | 0.00161 (≈ 0.291 µg/mL) | –
35 | Cc1cc2ccccc2cc1C | 0.0127 (≈ 1.99 µg/mL) | –
36 | CCCCCCOC(C)=O | 3.54 (≈ 511 µg/mL) | –
37 | C(=C\c1ccccc1)/CN1CCN(C(c2ccccc2)c2ccccc2)CC1 | 2.04 (≈ 750 µg/mL) | –
38 | O=C(Nc1ccccc1)Nc1ccccc1 | – | solubility: 0.707 mM (≈ 150 µg/mL)
39 | C1=CC=CCC=C1 | 6.73 (≈ 620 µg/mL) | –
40 | Cc1cccc(Cl)c1 | – | solubility: 0.3 mM (≈ 38 µg/mL)
41 | C1CCCC1 | 2.22 (≈ 156 µg/mL) | –
42 | O=C1c2ccccc2C(=O)c2c1ccc(O)c2O | – | solubility: 1.67 mM (≈ 400 µg/mL)
43 | C=C(C(=O)O)c1ccccc1 | – | solubility (20 °C): 8.77 mM (≈ 1300 µg/mL)
44 | CCCC[C@@H](O)CC | 34.4 (≈ 4000 µg/mL) | –
45 | CCOC(=O)c1ccccc1 | 4.79 (≈ 720 µg/mL) | –
46 | O=[N+]([O-])c1cc(C2CCCCC2)c(O)c([N+](=O)[O-])c1 | 0.0563 (≈ 15 µg/mL) | –
47 | O=C(O)c1ccc(Br)cc1 | – | solubility: 0.298 mM (≈ 60 µg/mL)
48 | ClCCCCl | 24.3 (≈ 2750 µg/mL) | –
49 | CCc1cccc(CC)c1N | – | solubility: 4.49 mM (≈ 670 µg/mL)
50 | Cc1occc1C(=O)Nc1ccccc1 | – | solubility (20 °C): 0.497 mM (≈ 100 µg/mL)
51 | Clc1cc(Cl)c(Cl)c(-c2c(Cl)c(Cl)cc(Cl)c2Cl)c1Cl | 3.42e-07 (≈ 0.000147 µg/mL) | –
52 | CC(CCl)OC(C)CCl (centres undefined) | – | solubility (20 °C): 9.94 mM (≈ 1700 µg/mL)
53 | CC(=O)OCC(C)C | 54.2 (≈ 6300 µg/mL) | –
54 | CCCCCCCBr | 0.0371 (≈ 6.64 µg/mL) | –

Row | SMILES | solubility (25 °C) [mM] | other results
55 | c1ccc(N=NNc2ccccc2)cc1 | – | solubility: 2.54 mM (≈ 500 µg/mL)
56 | Cc1ccc2cc(C)ccc2c1 | 0.0128 (≈ 2 µg/mL) | –
57 | CCOC(=O)C(C)N(C(=O)c1ccccc1)c1ccc(Cl)c(Cl)c1 (centres undefined) | 0.0546 (≈ 20 µg/mL) | –
58 | CCOP(=O)(OCC)OCC | 2740 (≈ 500000 µg/mL) | –
59 | CCC(C)OC(C)=O (centres undefined) | – | solubility (20 °C): 53.4 mM (≈ 6200 µg/mL)
60 | C=CCCCCCCCCC(=O)O | – | solubility (30 °C): 0.4 mM (≈ 73.7 µg/mL)
61 | Clc1ccc(-c2cc(Cl)ccc2Cl)c(Cl)c1 | – | solubility (20 °C): 0.000267 mM (≈ 0.0781 µg/mL)
62 | Clc1ccc(Cl)c(-c2cc(Cl)ccc2Cl)c1 | 5.24e-05 (≈ 0.0153 µg/mL) | –
63 | O=C(O)COc1ccc(Cl)c(Cl)c1 | 2.07 (≈ 457 µg/mL) | –
64 | FC(F)(F)C(F)(F)F | 0.0564 (≈ 7.78 µg/mL) | –
65 | CCCC(=O)CCC | 28 (≈ 3200 µg/mL) | –
66 | CCCCOCCOC(C)=O | – | solubility (20 °C): 56.2 mM (≈ 9000 µg/mL)
67 | CC1(C)C(=O)[C@@]2(C)CC[C@@H]1C2 | 14.1 (≈ 2150 µg/mL) | –
68 | CC(=O)CCC1C(=O)N(c2ccccc2)N(c2ccccc2)C1=O | – | solubility (20 °C): 0.54 mM (≈ 174 µg/mL)
69 | CCCC(=O)OC | 147 (≈ 15000 µg/mL) | –
70 | CCC[C@H]1CCCCN1 | – | solubility: 141 mM (≈ 18000 µg/mL)
71 | Clc1ccc(Cl)c(-c2cc(Cl)c(Cl)c(Cl)c2)c1 | – | solubility (20 °C): 4.84e-05 mM (≈ 0.0158 µg/mL)
72 | COC(=O)c1cc(Cl)cc(N)c1Cl | – | solubility (20 °C): 0.545 mM (≈ 120 µg/mL)
73 | Clc1ccc(Cl)c(-c2c(Cl)ccc(Cl)c2Cl)c1Cl | 1.25e-05 (≈ 0.00451 µg/mL) | –
74 | Cc1cccc(O)c1C | 37.4 (≈ 4570 µg/mL) | –
75 | CN(C)C(=O)N(C(=O)c1ccccc1)c1ccc(Cl)c(Cl)c1 | – | solubility (22 °C): 0.0474 mM (≈ 16 µg/mL)
76 | Clc1cc(Cl)cc(-c2cc(Cl)cc(Cl)c2)c1 | 4.22e-06 (≈ 0.00123 µg/mL) | –
77 | Oc1cccc2cccnc12 | – | solubility (20 °C): 3.83 mM (≈ 556 µg/mL)
78 | COC(=O)[C@@H]1C2CCC(C[C@@H]1OC(=O)c1ccccc1)N2C (some centres undefined) | – | solubility (22 °C): 5.93 mM (≈ 1800 µg/mL)
79 | CCCC(C)(C)C(=O)Nc1ccc(Cl)cc1 | – | solubility (23 °C): 0.0951 mM (≈ 22.8 µg/mL)
